Consider two compounds from US20040147723A1, “Moringa seed proteins” (priority 2001, published 2004).

Values after ≈ are worked out from the molar mass of the structure shown. Where no end group is shown, it is not given here.

In assay [1] the test system is L. pneumophilia serogroup 10. Put plainly: MIC/MBC in 96-well micro plaque, BYEα medium. It is filed as cell-based. Here is the method: (§1) Source of bacteria: The bacteria were isolated from drinking water of hospitals in Ticino, patient strains were obtained from the laboratory of microbiology at the CHUV.
(§2) MIC (minimal inhibitory concentration): MIC was measured with the help of a micro plaque with 96 wells, each containing 100 μl. The growth media were BYEα for L. pneumophilia and TSB for Mycobacterium and were containing a certain concentration of the peptide or antibiotic.
(§3) The media were then subjected to twofold dilutions (1 μl of bacterial suspension at a concentration of 5*10^8 CFU/ml diluted to 5*10^6 CFU/ml).
(§4) The L. pneumophilia culture was incubated at 35° C. and the results were read after 48 and 96 hours. The Mycobacterium culture was incubated at 30° C. for up to seven days.
(§5) MIC is the first well […].
(§6) MBC (minimal bactericidal concentration): 50 μl of the above suspensions were plated on solid media BCYEα or agar with blood. The L. pneumophilia culture was incubated at 35° C. for 48 hours and up to seven days for Mycobacterium.
(§7) The MBC value is the first plate without growth.

Assay [2] concerns L. pneumophilia serogroup 1. The assay can be described thus: MIC/MBC in 96-well micro plaque, BYEα medium. The format is cell-based. Here is the method: as §1, §2, §3, §4, §5, §6, §7
The nature of assay [3]: Coagulation test (glass bead suspension sedimentation). To be noted: 20 μg/ml, glass beads. The procedure: The test was carried out in a 2 ml volume in a spectrophotometer cell (104QS/HELLMA). To evaluate the coagulation activity, 100 mg/ml suspension of 3.5-7 μm diameter glass beads (Sheriglass 5000, Potters-Ballotini) were diluted in 50 mM phosphate buffer, pH=7.0, to mimic turbid water. Stirring was kept continuously at 800 rpm and OD 500 nm was measured each second (LabVIEW sfotware/National Instruments Corporation) in a Perkin-Elmer 552 spectrophotometer. After 5 minutes of continuous stirring the compound to be tested was added to a final concentration of 20 μg/ml, and stirring was continued for 15 minutes. Active compounds were diluted before the test either in phosphate buffer 10 mM, pH=7.0 (E proteins, PHYTOFLOC and bacterially produced Flo) or in distilled water (synthetic Flo).
To quantify the flocculation efficiency a linear regression was performed on time points corresponding to four minutes before the addition of the flocculating preparation (basal sedimentation) and four minutes after the addition of the flocculating preparation (coagulation-mediated sedimentation). The difference between the coagulation-mediated and basal sedimentation was calculated by subtraction in OD per minutes and multiplied by 1000 (Δ slope).
To assess particle coagulation properties of Flo, a suspension of glass beads under continuous mixing was used to mimic turbid water. […]

Another assay relates to E.coli ER2566. To be noted: ER2566, 2 h.

Experimental for E.coli ER2566: E.coli ER2566 was grown in LB medium to the exponential phase (A600=0.5-0.6) at 37° C. as above. The culture was centrifuged and resuspended in a same volume of 10 mM phosphate buffer pH=7.0, and E proteins, PHYTOFLOC (2 mg/ml), synthetic Flo (0.1 mg/ml to 2 mg/ml) carrier (buffer) or BSA (2 mg/ml) were added. After 2 hours incubation at 37° C., LB was added to the bacteria culture to obtain A600=0.1. All cultures were incubated at 37° C. at 200 rpm and the culture growth was followed through A600 measurements.
An exponential phase E.coli culture was centrifuged and incubated for 2 hrs at 37° C. in phosphate buffer alone (♦), or in phosphate buffer supplemented by the PHYTOFLOC extract (σ) or by synthetic Flo (ν) at a final concentration of 2 mg/ml. Bacteria were then diluted to A600=0.1 in LB growth medium and incubated at 37° C. under agitation. Optical density measurements were then recorded as indicated at 600 nm.
B. Exponentially growing E.coli culture was processed as indicated in (A) except that bacteria were incubated with different concentrations of synthetic Flo in mg/ml: 0 (ν), 0.1 (σ), 0.25 (O), 0.5 (Σ), 1 (λ) or 2 (B). BSA at 2 mg/ml was used as a non specific protein control (♦).

For `O=C(O)c1cn(C2CC2)c2cc(N3CCNCC3)c(F)cc2c1=O` [Ciprofloxacin], the MBC lay within 16 to 30 µg/mL (≈ 48.3 to 90.5 µM) in assay [1] (L. pneumophilia serogroup 10) and 30 to 60 µg/mL (≈ 90.5 to 181 µM) in assay [2]. In addition, the MIC worked out at 16 µg/mL (≈ 48.3 µM) in assay [1] (L. pneumophilia serogroup 10, 35° C.) and 30 µg/mL (≈ 90.5 µM) in assay [2].
“QGPGRQPDFQRCGQQLRNISPPQRCPSLRQAVQLTHQQQGQVGPQQVRQMYRVASNIPST (cysteines drawn unpaired) [synthetic Flo]”: the “specific coagulation activity compared with PHYTOFLOC” value in assay [3] is “higher”. Besides, in the assay with E.coli ER2566, the “IC50 of antibacterial growth response” value is on record as “approximately 100 μg/ml”.
